Test results reported in PMC4823954, “From fighting depression to conquering tumors: a novel tricyclic thiazepine compound as a tubulin polymerization inhibitor” (Cell Death & Disease, 2016).

Tests used:
Assay in all cases: KINOMEscan
Format in all cases: binding
Conditions in all cases: read-out: % Ctrl
EPHB2 = molecular target: T1, EPHB2 (Homo sapiens, UniProt P29323)
T1 construct: purchased DiscoveRx KINOMEscan
Procedure, shortened: (§1)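 Competition binding panel of 442 non-mutant kinases: test compound at 5 and 10 μM competed with an active-site-directed ligand for 1 h with shaking. Bound kinase was eluted with 0.5 μM ligand and quantified by qPCR; %Ctrl = (compound − positive control)/(DMSO − positive control) × 100, lower meaning tighter binding.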

CHEK1 = molecular target: T2, CHEK1 (Homo sapiens, UniProt O14757)
T2 construct: purchased DiscoveRx KINOMEscan
Procedure, shortened: as §1

VEGFR2 = molecular target: T3, VEGFR2 (Homo sapiens, UniProt P35968)
T3 construct: purchased DiscoveRx KINOMEscan
Procedure, shortened: as §1

MKNK1 = molecular target: T4, MKNK1 (Homo sapiens, UniProt Q9BUB5)
T4 construct: purchased DiscoveRx KINOMEscan
Procedure, shortened: as §1

MEK1 = molecular target: T5, MEK1 (Homo sapiens, UniProt Q02750)
T5 construct: purchased DiscoveRx KINOMEscan
Procedure, shortened: as §1

[1] = molecular target: RPS6KA5(Kin.Dom.2-C-terminal) (Homo sapiens, UniProt O75582)
Procedure, shortened: as §1

CDK8 = molecular target: T6, CDK8 (Homo sapiens, UniProt P49336)
T6 construct: purchased DiscoveRx KINOMEscan
Procedure, shortened: as §1

PFPK5(P.falciparum) = molecular target: T7, PFPK5(P.falciparum) (Plasmodium falciparum, UniProt P61075)
T7 construct: purchased DiscoveRx KINOMEscan
Procedure, shortened: as §1

TRKC = molecular target: T8, TRKC (Homo sapiens, UniProt Q16288)
T8 construct: purchased DiscoveRx KINOMEscan
Procedure, shortened: as §1

PLK2 = molecular target: T9, PLK2 (Homo sapiens, UniProt Q9NYY3)
T9 construct: purchased DiscoveRx KINOMEscan
Procedure, shortened: as §1

TIE2 = molecular target: T10, TIE2 (Homo sapiens, UniProt Q02763)
T10 construct: purchased DiscoveRx KINOMEscan
Procedure, shortened: as §1

SBK1 = molecular target: T11, SBK1 (Homo sapiens, UniProt Q52WX2)
T11 construct: purchased DiscoveRx KINOMEscan
Procedure, shortened: as §1

CLK3 = molecular target: T12, CLK3 (Homo sapiens, UniProt P49761)
T12 construct: purchased DiscoveRx KINOMEscan
Procedure, shortened: as §1

DYRK2 = molecular target: T13, DYRK2 (Homo sapiens, UniProt Q92630)
T13 construct: purchased DiscoveRx KINOMEscan
Procedure, shortened: as §1

MARK4 = molecular target: T14, MARK4 (Homo sapiens, UniProt Q96L34)
T14 construct: purchased DiscoveRx KINOMEscan
Procedure, shortened: as §1

SNARK = molecular target: T15, SNARK (Homo sapiens, UniProt Q9H093)
T15 construct: purchased DiscoveRx KINOMEscan
Procedure, shortened: as §1

DCAMKL1 = molecular target: T16, DCAMKL1 (Homo sapiens, UniProt O15075)
T16 construct: purchased DiscoveRx KINOMEscan
Procedure, shortened: as §1

[2] = molecular target: T17, ABL1(T315I)-nonphosphorylated (Homo sapiens, UniProt P00519, T315I)
T17 construct: purchased DiscoveRx KINOMEscan

ASK1 = molecular target: T18, ASK1 (Homo sapiens, UniProt Q99683)
T18 construct: purchased DiscoveRx KINOMEscan
Procedure, shortened: as §1

ASK2 = molecular target: T19, ASK2 (Homo sapiens, UniProt O95382)
T19 construct: purchased DiscoveRx KINOMEscan
Procedure, shortened: as §1

ADCK4 = molecular target: T20, ADCK4 (Homo sapiens, UniProt Q96D53)
T20 construct: purchased DiscoveRx KINOMEscan
Procedure, shortened: as §1

EPHA1 = molecular target: T21, EPHA1 (Homo sapiens, UniProt P21709)
T21 construct: purchased DiscoveRx KINOMEscan
Procedure, shortened: as §1

PIP5K2C = molecular target: T22, PIP5K2C (Homo sapiens, UniProt Q8TBX8)
T22 construct: purchased DiscoveRx KINOMEscan
Procedure, shortened: as §1

MYLK = molecular target: T23, MYLK (Homo sapiens, UniProt Q15746)
T23 construct: purchased DiscoveRx KINOMEscan
Procedure, shortened: as §1

MARK3 = molecular target: T24, MARK3 (Homo sapiens, UniProt P27448)
T24 construct: purchased DiscoveRx KINOMEscan
Procedure, shortened: as §1

FLT1 = molecular target: T25, FLT1 (Homo sapiens, UniProt P17948)
T25 construct: purchased DiscoveRx KINOMEscan
Procedure, shortened: as §1

ERK4 = molecular target: T26, ERK4 (Homo sapiens, UniProt P31152)
T26 construct: purchased DiscoveRx KINOMEscan
Procedure, shortened: as §1

PIM3 = molecular target: T27, PIM3 (Homo sapiens, UniProt Q86V86)
T27 construct: purchased DiscoveRx KINOMEscan
Procedure, shortened: as §1

CLK2 = molecular target: T28, CLK2 (Homo sapiens, UniProt P49760)
T28 construct: purchased DiscoveRx KINOMEscan
Procedure, shortened: as §1

JNK1 = molecular target: T29, JNK1 (Homo sapiens, UniProt P45983)
T29 construct: purchased DiscoveRx KINOMEscan
Procedure, shortened: as §1

T1 sequence (P29323 19-1055): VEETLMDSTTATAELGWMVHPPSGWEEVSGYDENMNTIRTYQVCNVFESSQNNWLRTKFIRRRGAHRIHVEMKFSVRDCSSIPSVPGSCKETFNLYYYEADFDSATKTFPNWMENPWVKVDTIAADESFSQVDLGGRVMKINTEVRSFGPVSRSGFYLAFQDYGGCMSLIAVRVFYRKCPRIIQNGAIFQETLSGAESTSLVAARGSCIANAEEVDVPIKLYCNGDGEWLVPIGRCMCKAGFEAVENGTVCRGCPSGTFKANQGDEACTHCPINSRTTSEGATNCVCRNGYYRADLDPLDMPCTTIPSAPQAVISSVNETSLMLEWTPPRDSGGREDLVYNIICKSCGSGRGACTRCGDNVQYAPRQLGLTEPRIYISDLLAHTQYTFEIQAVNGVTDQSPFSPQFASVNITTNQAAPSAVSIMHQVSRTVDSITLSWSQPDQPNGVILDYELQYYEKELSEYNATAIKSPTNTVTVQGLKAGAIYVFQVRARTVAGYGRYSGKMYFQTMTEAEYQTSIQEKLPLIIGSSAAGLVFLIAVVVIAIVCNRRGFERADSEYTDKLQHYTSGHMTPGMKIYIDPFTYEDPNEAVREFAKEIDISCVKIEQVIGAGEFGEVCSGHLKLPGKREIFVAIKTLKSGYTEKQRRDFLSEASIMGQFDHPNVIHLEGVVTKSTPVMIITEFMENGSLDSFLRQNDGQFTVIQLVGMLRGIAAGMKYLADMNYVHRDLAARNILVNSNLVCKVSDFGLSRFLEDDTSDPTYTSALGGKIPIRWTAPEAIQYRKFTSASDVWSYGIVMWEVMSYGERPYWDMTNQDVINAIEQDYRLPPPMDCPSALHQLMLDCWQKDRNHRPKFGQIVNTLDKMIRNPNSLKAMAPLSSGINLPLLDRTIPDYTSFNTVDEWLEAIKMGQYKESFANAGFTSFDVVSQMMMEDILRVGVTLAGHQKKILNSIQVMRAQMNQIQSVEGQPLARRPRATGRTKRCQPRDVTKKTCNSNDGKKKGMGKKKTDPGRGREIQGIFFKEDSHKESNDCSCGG
T16 sequence (O15075 whole entry): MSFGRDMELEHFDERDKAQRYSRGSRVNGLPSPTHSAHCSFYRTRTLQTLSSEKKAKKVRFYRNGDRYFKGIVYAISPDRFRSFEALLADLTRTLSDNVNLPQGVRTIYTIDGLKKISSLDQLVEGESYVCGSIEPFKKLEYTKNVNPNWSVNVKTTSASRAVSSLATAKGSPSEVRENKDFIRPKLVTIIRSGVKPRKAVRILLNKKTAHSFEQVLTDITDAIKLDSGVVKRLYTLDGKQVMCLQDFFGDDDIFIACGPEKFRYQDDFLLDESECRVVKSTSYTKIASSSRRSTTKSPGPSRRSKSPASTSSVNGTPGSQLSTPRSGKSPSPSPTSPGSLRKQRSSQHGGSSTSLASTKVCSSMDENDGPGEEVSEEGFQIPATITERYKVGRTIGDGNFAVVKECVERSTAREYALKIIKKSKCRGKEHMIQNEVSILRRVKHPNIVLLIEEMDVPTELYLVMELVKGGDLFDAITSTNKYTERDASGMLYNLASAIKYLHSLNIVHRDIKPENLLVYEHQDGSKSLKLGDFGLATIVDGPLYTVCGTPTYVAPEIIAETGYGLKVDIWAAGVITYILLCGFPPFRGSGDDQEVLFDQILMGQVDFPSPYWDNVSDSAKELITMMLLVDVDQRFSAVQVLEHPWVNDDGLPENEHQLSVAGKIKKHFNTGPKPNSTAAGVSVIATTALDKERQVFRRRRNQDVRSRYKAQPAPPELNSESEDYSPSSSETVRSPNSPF
T9 sequence (Q9NYY3 whole entry): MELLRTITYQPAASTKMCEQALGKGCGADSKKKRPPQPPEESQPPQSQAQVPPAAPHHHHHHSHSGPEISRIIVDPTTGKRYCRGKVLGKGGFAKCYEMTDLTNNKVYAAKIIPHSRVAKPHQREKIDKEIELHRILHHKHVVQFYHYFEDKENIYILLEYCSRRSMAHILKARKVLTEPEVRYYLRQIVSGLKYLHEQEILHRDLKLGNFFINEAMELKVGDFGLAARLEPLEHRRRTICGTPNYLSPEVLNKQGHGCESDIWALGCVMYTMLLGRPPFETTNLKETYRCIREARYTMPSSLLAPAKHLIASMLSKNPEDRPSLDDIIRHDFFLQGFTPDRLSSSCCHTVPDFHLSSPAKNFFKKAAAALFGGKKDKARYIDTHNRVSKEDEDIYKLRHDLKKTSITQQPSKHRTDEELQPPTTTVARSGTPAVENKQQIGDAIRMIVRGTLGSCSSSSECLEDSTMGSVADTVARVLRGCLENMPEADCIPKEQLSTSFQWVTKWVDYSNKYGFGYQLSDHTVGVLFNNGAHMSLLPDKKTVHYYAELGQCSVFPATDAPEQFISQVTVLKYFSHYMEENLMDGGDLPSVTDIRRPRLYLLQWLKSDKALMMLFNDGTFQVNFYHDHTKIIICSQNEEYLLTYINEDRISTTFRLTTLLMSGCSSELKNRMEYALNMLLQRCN
T2 sequence (O14757 whole entry): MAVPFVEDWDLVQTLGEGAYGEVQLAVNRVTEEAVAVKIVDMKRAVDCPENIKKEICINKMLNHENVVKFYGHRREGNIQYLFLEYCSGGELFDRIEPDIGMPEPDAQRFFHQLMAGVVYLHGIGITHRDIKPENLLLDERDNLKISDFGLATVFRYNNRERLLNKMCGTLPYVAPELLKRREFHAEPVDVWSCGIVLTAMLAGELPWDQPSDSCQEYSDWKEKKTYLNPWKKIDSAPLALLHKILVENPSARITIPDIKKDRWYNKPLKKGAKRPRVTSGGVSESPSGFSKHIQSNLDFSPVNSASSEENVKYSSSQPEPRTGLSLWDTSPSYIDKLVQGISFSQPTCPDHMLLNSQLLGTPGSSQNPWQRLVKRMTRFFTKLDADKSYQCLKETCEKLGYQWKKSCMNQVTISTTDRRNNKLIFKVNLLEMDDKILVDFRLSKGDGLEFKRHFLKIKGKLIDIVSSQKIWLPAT
T14 sequence (Q96L34 whole entry): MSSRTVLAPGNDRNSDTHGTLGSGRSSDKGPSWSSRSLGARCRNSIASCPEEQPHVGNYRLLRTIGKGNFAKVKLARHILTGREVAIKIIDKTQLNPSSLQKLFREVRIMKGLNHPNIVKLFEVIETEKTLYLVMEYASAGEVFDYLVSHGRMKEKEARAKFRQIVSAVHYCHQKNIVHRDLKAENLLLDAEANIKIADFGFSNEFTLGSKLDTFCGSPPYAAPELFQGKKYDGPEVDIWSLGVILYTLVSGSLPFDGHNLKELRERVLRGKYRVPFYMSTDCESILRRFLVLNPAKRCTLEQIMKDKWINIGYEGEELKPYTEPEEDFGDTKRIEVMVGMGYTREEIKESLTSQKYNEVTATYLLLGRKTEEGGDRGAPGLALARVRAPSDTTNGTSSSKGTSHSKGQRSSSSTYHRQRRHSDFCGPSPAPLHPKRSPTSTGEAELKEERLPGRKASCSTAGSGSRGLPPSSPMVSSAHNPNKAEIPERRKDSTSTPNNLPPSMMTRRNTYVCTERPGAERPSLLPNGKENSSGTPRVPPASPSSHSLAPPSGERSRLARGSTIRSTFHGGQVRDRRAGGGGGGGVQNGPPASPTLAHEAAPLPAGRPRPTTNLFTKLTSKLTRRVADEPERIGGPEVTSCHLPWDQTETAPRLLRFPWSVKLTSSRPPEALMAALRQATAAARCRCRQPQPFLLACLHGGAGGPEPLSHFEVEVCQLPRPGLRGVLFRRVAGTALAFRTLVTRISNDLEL
Sequence of RPS6KA5(Kin.Dom.2-C-terminal) (O75582 388-802 limits assumed): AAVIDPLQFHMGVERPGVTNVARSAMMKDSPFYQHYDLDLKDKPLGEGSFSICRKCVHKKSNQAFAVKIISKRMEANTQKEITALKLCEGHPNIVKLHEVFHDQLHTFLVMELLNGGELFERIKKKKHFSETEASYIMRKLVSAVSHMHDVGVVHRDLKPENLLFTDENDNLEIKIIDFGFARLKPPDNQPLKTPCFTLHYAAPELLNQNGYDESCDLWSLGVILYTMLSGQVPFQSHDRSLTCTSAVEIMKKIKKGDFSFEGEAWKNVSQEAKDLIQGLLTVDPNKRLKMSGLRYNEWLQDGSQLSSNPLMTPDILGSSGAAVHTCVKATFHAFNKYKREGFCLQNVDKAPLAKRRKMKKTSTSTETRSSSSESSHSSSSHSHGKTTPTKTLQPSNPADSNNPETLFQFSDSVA
T29 sequence (P45983 whole entry): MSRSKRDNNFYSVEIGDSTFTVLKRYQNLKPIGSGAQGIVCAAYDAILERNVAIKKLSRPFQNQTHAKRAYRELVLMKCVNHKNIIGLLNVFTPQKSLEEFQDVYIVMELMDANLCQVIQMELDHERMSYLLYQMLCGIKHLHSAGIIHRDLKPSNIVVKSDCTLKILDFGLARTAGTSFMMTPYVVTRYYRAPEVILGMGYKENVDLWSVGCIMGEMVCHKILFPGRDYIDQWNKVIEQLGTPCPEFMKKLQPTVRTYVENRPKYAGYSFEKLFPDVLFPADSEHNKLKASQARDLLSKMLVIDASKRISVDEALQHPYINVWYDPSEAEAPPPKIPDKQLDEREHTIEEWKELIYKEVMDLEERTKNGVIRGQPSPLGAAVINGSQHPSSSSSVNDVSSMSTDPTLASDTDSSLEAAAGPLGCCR

Compound: Cc1ccc(C2=Nc3cccnc3S(=O)(=O)c3ccccc32)cc1 [TBPT, 6-(p-tolyl)benzo[f] pyrido[2,3-b][1,4] thiazepine 11,11-dioxide]
- remaining binding at 5 µM (EPHB2; 5 μM): 91%
- remaining binding at 10 µM (EPHB2; 10 μM): 100%
- remaining binding at 5 µM (CHEK1; 5 μM): 100%
- remaining binding at 10 µM (CHEK1; 10 μM): 100%
- remaining binding at 5 µM (VEGFR2; 5 μM): 95%
- remaining binding at 10 µM (VEGFR2; 10 μM): 84%
- remaining binding at 5 µM (MKNK1; 5 μM): 36%
- remaining binding at 10 µM (MKNK1; 10 μM): 100%
- remaining binding at 5 µM (MEK1; 5 μM): 100%
- remaining binding at 10 µM (MEK1; 10 μM): 92%
- remaining binding at 5 µM ([1]; 5 μM): 100%
- remaining binding at 10 µM ([1]; 10 μM): 93%
- remaining binding at 5 µM (CDK8; 5 μM): 94%
- remaining binding at 10 µM (CDK8; 10 μM): 100%
- remaining binding at 5 µM (PFPK5(P.falciparum); 5 μM): 97%
- remaining binding at 10 µM (PFPK5(P.falciparum); 10 μM): 97%
- remaining binding at 5 µM (TRKC; 5 μM): 100%
- remaining binding at 10 µM (TRKC; 10 μM): 96%
- remaining binding at 5 µM (PLK2; 5 μM): 100%
- remaining binding at 10 µM (PLK2; 10 μM): 83%
- remaining binding at 5 µM (TIE2; 5 μM): 100%
- remaining binding at 10 µM (TIE2; 10 μM): 91%
- remaining binding at 5 µM (SBK1; 5 μM): 100%
- remaining binding at 10 µM (SBK1; 10 μM): 85%
- remaining binding at 5 µM (CLK3; 5 μM): 100%
- remaining binding at 10 µM (CLK3; 10 μM): 100%
- remaining binding at 5 µM (DYRK2; 5 μM): 93%
- remaining binding at 10 µM (DYRK2; 10 μM): 100%
- remaining binding at 5 µM (MARK4; 5 μM): 81%
- remaining binding at 10 µM (MARK4; 10 μM): 100%
- remaining binding at 5 µM (SNARK; 5 μM): 100%
- remaining binding at 10 µM (SNARK; 10 μM): 100%
- remaining binding at 5 µM (DCAMKL1; 5 μM): 100%
- remaining binding at 10 µM (DCAMKL1; 10 μM): 89%
- remaining binding at 5 µM ([2]; 5 μM): 100%
- remaining binding at 10 µM ([2]; 10 μM): 100%
- remaining binding at 5 µM (ASK1; 5 μM): 100%
- remaining binding at 10 µM (ASK1; 10 μM): 100%
- remaining binding at 5 µM (ASK2; 5 μM): 82%
- remaining binding at 10 µM (ASK2; 10 μM): 100%
- remaining binding at 5 µM (ADCK4; 5 μM): 83%
- remaining binding at 10 µM (ADCK4; 10 μM): 94%
- remaining binding at 5 µM (EPHA1; 5 μM): 100%
- remaining binding at 10 µM (EPHA1; 10 μM): 94%
- remaining binding at 5 µM (PIP5K2C; 5 μM): 100%
- remaining binding at 10 µM (PIP5K2C; 10 μM): 100%
- remaining binding at 5 µM (MYLK; 5 μM): 100%
- remaining binding at 10 µM (MYLK; 10 μM): 81%
- remaining binding at 5 µM (MARK3; 5 μM): 96%
- remaining binding at 10 µM (MARK3; 10 μM): 87%
- remaining binding at 5 µM (FLT1; 5 μM): 100%
- remaining binding at 10 µM (FLT1; 10 μM): 98%
- remaining binding at 5 µM (ERK4; 5 μM): 89%
- remaining binding at 10 µM (ERK4; 10 μM): 100%
- remaining binding at 5 µM (PIM3; 5 μM): 96%
- remaining binding at 10 µM (PIM3; 10 μM): 100%
- remaining binding at 5 µM (CLK2; 5 μM): 100%
- remaining binding at 10 µM (CLK2; 10 μM): 100%
- remaining binding at 5 µM (JNK1; 5 μM): 100%
- remaining binding at 10 µM (JNK1; 10 μM): 85%
